Results on 13 compounds are retold here after patent publication US20200331904A1, “3-AMINO-[1,2,4]-TRIAZOLE DERIVATIVES AND THEIR USE FOR CONTROLLING UNDESIRED PLANT GROWTH” (Bayer CropScience Aktiengesellschaft, priority 2017, published 2020).

Assay type in all cases: in vivo
The test system of one experiment is Amaranthus retroflexus. In words: Pre-emergence herbicidal efficacy, AMARE. The following applies: Table B2, application rate 320 g/ha, scored visually after about 3 weeks vs untreated controls. The text has this: (§1) C.1 Pre-Emergence Herbicidal Action and Crop Plant Compatibility
(§2) Seeds of monocotyledonous and dicotyledonous weed plants and crop plants are placed in plastic or organic planting pots and covered with soil. The compounds of the invention, formulated in the form of wettable powders (WP) or as emulsion concentrates (EC), are then applied onto the surface of the covering soil as aqueous suspension or emulsion with addition of 0.5% additive at a water application rate of […] (converted). After the treatment, the pots are placed in a greenhouse and kept under good growth conditions for the trial plants. After about 3 weeks, the effect of the preparations is scored visually in comparison with untreated controls as percentages. For example, 100% activity=the plants have died, 0% activity=like control plants.
(§3) ABUTH: Abutilon theophrasti ALOMY: Alopecurus myosuroides AMARE: Amaranthus retroflexus AVEFA: Avena fatua CYPES: Cyperus esculentus ECHCG: Echinochloa crus-galli LOLMU: Lolium multiflorum MATIN: Matricaria inodora PHBPU: Ipomoea purpurea POLCO: Polygonum convolvulus SETVI: Setaria viridis STEME: Stellaria media VERPE: Veronica persica VTOTR: Viola tricolor

In another experiment the test system is Veronica persica. In words: Pre-emergence herbicidal efficacy, VERPE. The following applies: Table B2, application rate 320 g/ha, scored visually after about 3 weeks vs untreated controls.
Excerpt: as §1, §2, §3

For another experiment, the system named is Stellaria media. In words: Pre-emergence herbicidal efficacy, STEME.
Excerpt: as §1, §2, §3

A further experiment has as its system Matricaria inodora. In words: Pre-emergence herbicidal efficacy, MATIN.
Excerpt: as §1, §2, §3

In a further experiment the test system is Viola tricolor. In words: Pre-emergence herbicidal efficacy, VIOTR.
Excerpt: as §1, §2, §3

Where [1] appears, read: Table B2, application rate 320 g/ha, scored visually after about 3 weeks vs untreated controls.
[2] abbreviates: application rate 320 g/ha, scored visually after about 3 weeks.

For `CC(=O)N1CCCn2nc(NC3CCc4ccc(C)cc43)nc21` (stereo not shown) [Example I-320], the “Herbicidal efficacy against AMARE” value with Amaranthus retroflexus was 90%. Besides, the “Herbicidal efficacy against VERPE” value in the experiment on Veronica persica amounted to 100%. In addition, the “Herbicidal efficacy against STEME” value in the experiment with Stellaria media (setting [1]) turned out to be 100%. Moreover, the “Herbicidal efficacy against MATIN” value in the experiment on Matricaria inodora (setting [1]) was 100%. The “Herbicidal efficacy against VIOTR” value with Viola tricolor (setting [1]) stood at 100%.

With `CC1CCc2ccccc2C1Nc1nc2n(n1)CCCCS2(=O)=O` (stereo not shown) [Example I-368], in the experiment on Amaranthus retroflexus, the “Herbicidal efficacy against AMARE” value amounted to 100%. In addition, in the experiment with Veronica persica, the “Herbicidal efficacy against VERPE” value was found to be 100%. In addition, the “Herbicidal efficacy against STEME” value in the experiment with Stellaria media (setting [1]) is given as 100%. Further, the “Herbicidal efficacy against MATIN” value in the experiment with Matricaria inodora (setting [1]) amounted to 100%. Moreover, the “Herbicidal efficacy against VIOTR” value in the experiment on Viola tricolor (setting [1]) is recorded as 100%.

For `CCN1CCn2nc(N[C@@H]3CCCc4ccc(C)cc43)nc2C1` [Example I-343], the “Herbicidal efficacy against AMARE” value in the experiment on Amaranthus retroflexus is reported as 100%. The “Herbicidal efficacy against VERPE” value in the experiment on Veronica persica turned out to be 100%. Moreover, in the experiment with Stellaria media (setting [1]), the “Herbicidal efficacy against STEME” value is on record as 100%. The “Herbicidal efficacy against MATIN” value in the experiment with Matricaria inodora (setting [1]) is on record as 100%. The “Herbicidal efficacy against VIOTR” value in the experiment with Viola tricolor (setting [1]) was determined as 100%.

As to `Cc1ccc2c(c1)C(Nc1nc3n(n1)CCC(=O)N3Cc1ccccc1)CCC2` (stereo not shown) [Example I-315], the “Herbicidal efficacy against AMARE” value in the experiment on Amaranthus retroflexus is listed as 80%. In addition, the “Herbicidal efficacy against VERPE” value with Veronica persica is on record as 100%. The “Herbicidal efficacy against STEME” value in the experiment with Stellaria media (setting [1]) came out at 90%. Besides, the “Herbicidal efficacy against MATIN” value in the experiment on Matricaria inodora (setting [1]) turned out to be 80%. The “Herbicidal efficacy against VIOTR” value in the experiment with Viola tricolor (setting [1]) was 100%.

For `Cc1ccc2c(c1)[C@H](Nc1nc3n(n1)CCN(C(=O)c1ccccc1)C3)CCC2` [Example I-181], the “Herbicidal efficacy against STEME” value with Stellaria media (setting [2]) is given as 100%. In the experiment on Matricaria inodora (setting [2]), the “Herbicidal efficacy against MATIN” value is listed as 100%. Also, the “Herbicidal efficacy against VIOTR” value in the experiment on Viola tricolor (setting [2]) was found to be 100%.

For the compound `c1ccc2c(c1)CCC2Nc1nc2n(n1)CCCCS2` (stereo not shown) [Example I-212], the “Herbicidal efficacy against STEME” value in the experiment with Stellaria media (setting [2]) was 100%. Further, the “Herbicidal efficacy against MATIN” value with Matricaria inodora (setting [2]) was 100%. For the same compound, in the experiment with Viola tricolor (setting [2]), the “Herbicidal efficacy against VIOTR” value turned out to be 100%.

`Cc1ccc2c(c1)[C@H](Nc1nc3n(n1)CCN(C(=O)c1ccc(Cl)cc1)C3)CC2` [Example I-179]: the “Herbicidal efficacy against STEME” value with Stellaria media (setting [2]) amounted to 100%. The “Herbicidal efficacy against MATIN” value in the experiment on Matricaria inodora (setting [2]) worked out at 90%. The “Herbicidal efficacy against VIOTR” value in the experiment with Viola tricolor (setting [2]) stood at 70%.

Take `O=C1CCn2nc(NC3CCCc4ccccc43)nc2N1CC1CC1` (stereo not shown) [Example I-228]: the “Herbicidal efficacy against STEME” value with Stellaria media (setting [2]) came out at 100%. In addition, the “Herbicidal efficacy against MATIN” value in the experiment on Matricaria inodora (setting [2]) worked out at 100%. The “Herbicidal efficacy against VIOTR” value with Viola tricolor (setting [2]) is recorded as 100%.

For `Cc1ccc2c(c1)C(Nc1nc3n(n1)CCN(C(=O)c1ccccc1Cl)C3)C(C)C2` (stereo not shown) [Example I-169], the “Herbicidal efficacy against STEME” value in the experiment with Stellaria media (setting [2]) worked out at 100%. Further, the “Herbicidal efficacy against MATIN” value with Matricaria inodora (setting [2]) was determined as 90%. In addition, the “Herbicidal efficacy against VIOTR” value with Viola tricolor (setting [2]) worked out at 100%.

As for `O=S1(=O)CCCCn2nc(NC3CCc4ccccc43)nc21` (stereo not shown) [Example I-236], the “Herbicidal efficacy against STEME” value in the experiment on Stellaria media (setting [2]) came to 100%. Moreover, the “Herbicidal efficacy against MATIN” value in the experiment with Matricaria inodora (setting [2]) was 100%. Moreover, the “Herbicidal efficacy against VIOTR” value in the experiment on Viola tricolor (setting [2]) is reported as 100%.

For `Cc1ccc2c(c1)C(Nc1nc3n(n1)CCCN3S(=O)(=O)C1CC1)CC2` (stereo not shown) [Example I-336], the “Herbicidal efficacy against AMARE” value in the experiment on Amaranthus retroflexus is given as 100%. In addition, the “Herbicidal efficacy against VERPE” value in the experiment on Veronica persica worked out at 100%. For the same compound, in the experiment on Stellaria media (setting [1]), the “Herbicidal efficacy against STEME” value was 100%. The “Herbicidal efficacy against MATIN” value in the experiment on Matricaria inodora (setting [1]) came out at 100%. For the same compound, in the experiment with Viola tricolor (setting [1]), the “Herbicidal efficacy against VIOTR” value was 100%.

With `Cc1ccc2c(c1)[C@H](Nc1nc3n(n1)CCN(C(=O)c1cccc(C(F)(F)F)c1)C3)CCC2` [Example I-183], the “Herbicidal efficacy against STEME” value in the experiment with Stellaria media (setting [2]) is given as 100%. Moreover, the “Herbicidal efficacy against MATIN” value in the experiment with Matricaria inodora (setting [2]) was found to be 90%. Besides, the “Herbicidal efficacy against VIOTR” value in the experiment with Viola tricolor (setting [2]) is given as 90%.

For the compound `O=C(C1CC1)N1CCn2nc(N[C@@H]3CCc4ccccc43)nc2C1` [Example I-160], the “Herbicidal efficacy against STEME” value in the experiment on Stellaria media (setting [2]) came out at 100%. Further, the “Herbicidal efficacy against MATIN” value in the experiment with Matricaria inodora (setting [2]) amounted to 90%. The “Herbicidal efficacy against VIOTR” value with Viola tricolor (setting [2]) stood at 100%.
